Assay results published in patent publication US20090270397A1, “Methods and compositions for the treatment of cancers, such as melanomas and gliomas” (priority 2008, published 2009).

Columns and labels:
[1] = tested on: melanoma cells; test: Antifolate agents as enhancers of TMZ, MTT assay (FIG. 7); format: cell-based; conditions: 0.01 uM antifolate in combination with TMZ, 72 h
Experimental: FIG. 7 is a graph presenting the results of tests of several antifolate agents as enhancers of anti-neoplastic activity. […] Cells were treated with the indicated dose of TMZ alone, or in combination with 0.01 uM PYR, MTX (Methotrexate), TMP (Trimethoprim), TMTX (Trimetrexate), PTX (Piritrexim), and CYC (Cycloguanil). Cell growth was assessed by MTT assay after 72 h drug treatment.
Among the six “hits” identified from library screening, both PYR and triamterene are antifolate compounds.

[2] = tested on: SK-MEL 19 cells; test: MTT cell proliferation/viability assay in SK-MEL 19 melanoma cells; format: cell-based, human; conditions: for sensitization to TMZ (effect on TMZ response curve): SK-MEL 19 cells
Experimental: Dose-response diagrams of SKM-19 cells exposed to TMZ (FIG. 2A) or pyrimethamine (PYR) (FIG. 2B) alone were prepared for comparison. Melanoma cells were exposed to the indicated concentration of TMZ or PYR for 72 hours. Cell growth inhibition was evaluated by the MTT assay. Survival relative to the control is presented as mean±standard error of the mean of at least three experiments (with viability of control cells set at 100%). In FIG. 2C, PYR enhances TMZ efficacy in various cancer cell lines. Cells were treated with indicated concentrations of TMZ or PYR at the same time and left for 72 hours. Cell viability was determined by MTT assay. SK-MeI 19, SK-Mel 100, SK-Mel 173, and SK-Mel 192 are melanoma cell lines; LN-18 and T98G are glioma cell lines. * P<0.05, **P<0.01.
(§1) FIGS. 8A-8C. PYR antifolate activity enhances TMZ chemotherapeutic efficacy. A, the growth inhibitory effects of PYR, DDEP, DDMP, CYC, and the classical antifolate MTX on TMZ response curve were examined by MTT assay in melanoma and glioma cells. […] The cytotoxic effect of the combination of TMZ (25 μg/ml) and PYR (0.5 μM) can be rescued by LV (10 μM) as examined by MTT assay (B) and the level of cleaved PARP (C) in SK-MEL 19 cells. 1. Control; 2. TMZ; 3. PYR; 4. TMZ+PYR; and 5. TMZ+PYR+LV. ** P<0.01, compared to 2, 3, or 5.
(§2) The cell growth and cytotoxicity after treatment with TMZ and/or PYR on melanoma cells and glioma cells was performed using Colorimetric MTT assay for cell survival and proliferation assay (MTT Assay Kit, Promega). Tumor cells were seeded at 3000 cells per well (100 μl volume) in 96-well plates and allowed to attach overnight. After TMZ and PYR treatment for 72 hours, the cells were stained with MTT, which is then converted to dark blue formazan crystals by mitochondrial dehydrogenases in viable cells. The plates were read with a microplate reader by measuring the absorbance of converted MTT at 490 nm. Results were expressed as the OD490 relative to that of untreated cells. Cell viability was also determined by the trypan-blue dye exclusion method.

[3] = tested on: cleaved PARP in SK-MEL 19 cells; test: Leucovorin rescue, cleaved PARP level; format: cell-based, human; conditions: 10 μM LV added to cells treated with TMZ/PYR
Experimental: as §1
Leucovorin (N-5-formyltetrahydrofolate, LV, folinic acid), a reduced form of folate, is used widely to specifically reverse the toxic effects of antifolates (27). To further confirm that PYR-enhanced TMZ chemotherapeutic efficacy in melanoma cells was due to the antifolate activity of PYR, 10 μM LV was added to cells treated with TMZ/PYR. LV rescued both the inhibition of cell growth (FIG. 8B) and the increase in apoptotic death induced by TMZ/PYR as measured by the proteolytic cleavage of PARP by caspase-3 (FIG. 8C).

[4] = Further antifolate agents as enhancers of temozolomide activity (FIGS. 9 and 10); format: cell-based; conditions: FIG. 9
Experimental: FIG. 9 is a further graph presenting the results of tests of several antifolate agents as enhancers of anti-neoplastic activity. In the figure, N1 is pterin-6-carboxylic acid, N2 is aminopterin, N3 is amiloride and N4 is N,N-hexamethylene amiloride.
FIG. 10 presents further data from the testing of additional agents for use in accordance with the invention. Thus, TMZ was administered in combination with compounds S1-S14. The compounds tested are as follows: S1-dipyridamole. S2-methotrexate, S3-minoxidil, S4-prazosin hydrochloride, S5-pyrimethamine, S6-triamterene, S7-trimethoprim, S8-aminopterin, S9-pipemidic acid, S10-piromidic acid, S11-famciclovir, S12-alfuzocin, S13-xanthopterin, and S14-leucopterin.
In FIGS. 9 and 10, additional antifolate agents were tested, and the results indicating their activity as enhancers of TMZ activity are set forth.

[5] = cited from earlier work
[6] = tested on: human melanoma cell line SK-MEL 19; test: Screening of Spectrum Collection library for enhancers of TMZ-induced growth inhibition (MTT assay); format: cell-based; conditions: SK-MEL19, 1 μM compound in presence of 50 μg/ml TMZ, 96-well plates, read-out: greater growth inhibition relative to TMZ alone
Experimental: FIGS. 1A and 1B. […] Screening was performed with SK-Mel-19 cells in 96-well plates following by MTT assay. Cells in one set of plate were treated with each library compound alone at 1 μM while cells in the parallel plate were treated with a combination of 1 μM library compound and 50 μg/ml TMZ. Positive candidates were later reconfirmed in triplicate.
A commercial library of 2000 drugs and natural products was screened to identify novel compounds that enhance TMZ-induced growth inhibition in the human melanoma cell line SK-MEL 19. Screening was performed in 96-well plates at final compound concentration of 1 μM, in the absence or presence of 50 μg/ml TMZ, followed by MTT assay (FIG. 1A).

[7] = cited from earlier work; remark: listed apart in the source
[8] = tested on: SK-MEL 19; test: Cell death by trypan blue dye exclusion; format: cell-based, human; conditions: clinically-relevant concentration of TMZ, PYR 0.5 μM, 72 hours
Experimental: Melanoma cells were exposed to the indicated concentration of TMZ, PYR or both for 72 hours. In FIG. 5A, cell death was evaluated by trypan blue dye exclusion. * P<0.05, compared to 2 or 3. In FIG. 5B, cleaved Caspase-3 was determined by Western blot analysis. 1. Control; 2. TMZ (25 μg/ml); 3. PYR (0.5 μM), and 4. TMZ and PYR combination.
as §2
To investigate whether PYR can enhance the induction of cell death by TMZ, Trypan blue staining was employed to determine the ratio of dead cells versus total cells in SK-MEL 19. […]

Structure (SMILES): CC1(C)N=C(N)N=C(N)N1c1ccc(Cl)cc1 [CYC, cycloguanil]
- enhancement of TMZ efficacy [1]: enhance TMZ efficacy

Structure (SMILES): CCc1nc(N)nc(N)c1-c1ccc(Cl)c(Cl)c1 [DDEP, etoprine]
- sensitization to TMZ (effect on TMZ response curve) ([2]; 0.005 μM antifolate, MTT): significant sensitization to TMZ

Structure (SMILES): Cc1nc(N)nc(N)c1-c1ccc(Cl)c(Cl)c1 [DDMP, metoprine]
- sensitization to TMZ (effect on TMZ response curve) ([2]; 0.005 μM antifolate, MTT): significant sensitization to TMZ

Structure (SMILES): Nc1nc2c(c(=O)[nH]1)N(C=O)C(CNc1ccc(C(=O)N[C@@H](CCC(=O)O)C(=O)O)cc1)CN2 (some centres unmarked) [LV, N-5-formyltetrahydrofolate]
- rescue of increase in apoptotic death induced by TMZ/PYR (proteolytic cleavage of PARP) [3]: rescued
- rescue of inhibition of cell growth induced by TMZ/PYR ([2]; 10 μM LV added to cells treated with TMZ (25 μg/ml)/PYR (0.5 μM), MTT): rescued

Structure (SMILES): CN(Cc1cnc2nc(N)nc(N)c2n1)c1ccc(C(=O)N[C@@H](CCC(=O)O)C(=O)O)cc1 [MTX, methotrexate]
- sensitization to TMZ (effect on TMZ response curve) ([2]; 0.001 μM antifolate, MTT): significant sensitization to TMZ
- enhancement of TMZ efficacy [1]: enhance TMZ efficacy

Structure (SMILES): Nc1nc2ncc(C(=O)O)nc2c(=O)[nH]1 [N1, pterin-6-carboxylic acid]
- enhancement of the antineoplastic activity of temozolomide [4]: favorable enhancement

Structure (SMILES): N=C(N)NC(=O)c1nc(Cl)c(N)nc1N [N3, amiloride]
- enhancement of the antineoplastic activity of temozolomide [4]: favorable enhancement

Structure (SMILES): NC(N)=NC(=O)c1nc(Cl)c(N2CCCCCC2)nc1N [N4, N,N-hexamethylene amiloride]
- enhancement of the antineoplastic activity of temozolomide [4]: favorable enhancement

Structure (SMILES): COc1ccc(OC)c(Cc2cnc3nc(N)nc(N)c3c2C)c1 [PTX, Piritrexim]
- enhancement of TMZ efficacy [1]: enhance TMZ efficacy

Structure (SMILES): CCc1nc(N)nc(N)c1-c1ccc(Cl)cc1 [PYR, pyrimethamine]
- blood-brain barrier crossing ([5]; in vivo): easily crosses the blood-brain barrier
- oral bioavailability ([5]; oral administration): bioavailable following oral administration
- inhibition at 1 µM [6]: ≥ 50%

Structure (SMILES): COc1cc(Cc2cnc(N)nc2N)cc(OC)c1OC [TMP, Trimethoprim]
- enhancement of TMZ efficacy [1]: enhance TMZ efficacy

Structure (SMILES): COc1cc(NCc2ccc3nc(N)nc(N)c3c2C)cc(OC)c1OC [TMTX, Trimetrexate]
- enhancement of TMZ efficacy [1]: enhance TMZ efficacy

Structure (SMILES): Cn1nnc2c(C(N)=O)ncn2c1=O [TMZ, temozolomide]
- IC50 ([2]; Homo sapiens, SK-MEL19, TMZ alone, SK-MEL-19 cells): ~60 mg/L
- clinically achievable serum levels during chemotherapy [7]: 100 µM
- cell death (ratio of dead cells versus total cells) [8]: approximately 15%

Structure (SMILES): S=C=NCc1ccccc1 [benzyl isothiocyanate]
- inhibition at 1 µM [6]: ≥ 50%

Structure (SMILES): [H]/N=C(\N/C(=N/[H])NCCCCCCNC(=N)NC(=N)Nc1ccc(Cl)cc1)Nc1ccc(Cl)cc1 [chlorhexidine]
- inhibition at 1 µM [6]: ≥ 50%

Structure (SMILES): Oc1ccc(Cl)c2cccnc12 [cloxyquin]
- inhibition at 1 µM [6]: ≥ 50%

Structure (SMILES): Nc1nc(N)c2nc(-c3ccccc3)c(N)nc2n1 [triamterene]
- inhibition at 1 µM [6]: ≥ 50%
